Results as given in patent US6416735B1 (priority 1999, dated 2002).
Structures can show the parent of a compound that is named as a salt. Where two headings read alike, the source gives them in different places.

Legend:
α7 nAChR = α7 nAChR (Rattus norvegicus, UniProt Q05941); experiment: biochemical; format: binding
[1] = in vivo; cited from earlier work
α4β2 nAChRs = α4β2 nAChRs (Rattus norvegicus, UniProt P09483+P12390); experiment: biochemical; format: binding
[2] = read-out: KI, inhibition of [^125I]Iodo-MLA binding

Chain of α7 nAChR (Q05941 23-502): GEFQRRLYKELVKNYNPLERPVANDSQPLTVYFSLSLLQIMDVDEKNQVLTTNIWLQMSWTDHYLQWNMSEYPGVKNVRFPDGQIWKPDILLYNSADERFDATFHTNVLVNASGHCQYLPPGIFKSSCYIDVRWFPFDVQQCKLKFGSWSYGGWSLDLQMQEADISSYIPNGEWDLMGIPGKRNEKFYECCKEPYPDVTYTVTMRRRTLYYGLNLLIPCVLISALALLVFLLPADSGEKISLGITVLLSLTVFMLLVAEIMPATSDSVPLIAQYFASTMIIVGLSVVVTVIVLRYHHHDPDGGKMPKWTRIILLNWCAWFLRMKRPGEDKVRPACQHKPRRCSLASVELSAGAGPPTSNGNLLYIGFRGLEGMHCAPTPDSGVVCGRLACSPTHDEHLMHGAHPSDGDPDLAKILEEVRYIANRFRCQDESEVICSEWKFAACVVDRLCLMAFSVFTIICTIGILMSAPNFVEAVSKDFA
Chain of α4β2 nAChRs (P12390 25-500): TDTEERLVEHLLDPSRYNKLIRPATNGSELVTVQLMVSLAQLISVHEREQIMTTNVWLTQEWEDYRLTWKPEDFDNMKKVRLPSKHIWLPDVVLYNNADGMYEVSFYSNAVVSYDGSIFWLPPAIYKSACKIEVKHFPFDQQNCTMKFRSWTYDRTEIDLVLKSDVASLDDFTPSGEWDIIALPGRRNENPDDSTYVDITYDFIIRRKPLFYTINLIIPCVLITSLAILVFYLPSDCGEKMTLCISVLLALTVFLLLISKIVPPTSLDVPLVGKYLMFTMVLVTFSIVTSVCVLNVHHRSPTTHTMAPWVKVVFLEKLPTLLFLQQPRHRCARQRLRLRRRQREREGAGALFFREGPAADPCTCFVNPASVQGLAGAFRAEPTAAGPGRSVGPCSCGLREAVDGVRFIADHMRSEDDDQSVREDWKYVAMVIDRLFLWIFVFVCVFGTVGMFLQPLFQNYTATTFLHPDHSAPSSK
Chain of α4β2 nAChRs (P09483 31-630): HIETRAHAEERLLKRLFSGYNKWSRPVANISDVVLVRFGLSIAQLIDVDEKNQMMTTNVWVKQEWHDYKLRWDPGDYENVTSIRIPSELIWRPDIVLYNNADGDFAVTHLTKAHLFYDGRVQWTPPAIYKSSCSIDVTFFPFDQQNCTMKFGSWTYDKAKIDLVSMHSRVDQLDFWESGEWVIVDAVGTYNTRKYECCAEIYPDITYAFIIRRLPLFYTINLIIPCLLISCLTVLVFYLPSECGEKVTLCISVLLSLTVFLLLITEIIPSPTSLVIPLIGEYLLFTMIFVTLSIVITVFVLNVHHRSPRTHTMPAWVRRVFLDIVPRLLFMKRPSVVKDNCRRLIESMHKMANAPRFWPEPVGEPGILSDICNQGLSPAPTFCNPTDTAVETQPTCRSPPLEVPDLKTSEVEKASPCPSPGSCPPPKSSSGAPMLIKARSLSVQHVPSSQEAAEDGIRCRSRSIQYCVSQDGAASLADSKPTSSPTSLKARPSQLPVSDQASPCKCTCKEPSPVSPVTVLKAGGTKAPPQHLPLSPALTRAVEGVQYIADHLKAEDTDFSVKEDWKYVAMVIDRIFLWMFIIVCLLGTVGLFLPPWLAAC

CCN1CC2(COC(=O)c3cc(I)ccc3N3C(=O)CC(C)C3=O)CCC(OC)C34C5CC6C(OC)CC(O)(C5C6OC)C(O)(C(OC)C23)C14 (stereo not shown) (as salt: citrate) [iodo-MLA, Iodo-methyllycaconitine]
melting point: 115 to 116 °C

CN1CCCC1c1cccnc1 (single isomer, unassigned; (-)) [(-)-Nicotine]
displacing [^125I]iodo-MLA (in words) (α7 nAChR): weak or ineffective

C(=Cc1ccccc1)C=C1CCCN=C1c1cccnc1 [3-Cinnamylidene-anabasine]
Ki (α7 nAChR; [2]): 15.3 ± 2 nM

CO[C@H]1CC=C2CCN3CCC4=C(CC(=O)OC4)[C@]23C1 [Dihydro-β-erythroidine]
displacing [^125I]iodo-MLA (in words) (α7 nAChR): weak or ineffective
Ki (α7 nAChR; [2]): > 10000 nM

CCN1C[C@]2(COC(=O)c3ccccc3N3C(=O)C[C@H](C)C3=O)CC[C@H](OC)[C@@]34[C@@H]5C[C@H]6[C@H](OC)[C@@H]5[C@](O)(C[C@@H]6OC)[C@@](O)([C@@H](OC)[C@H]23)[C@@H]14 [MLA, Methyllycaconitine]
crossing of the blood-brain barrier [1]: crosses the blood-brain barrier

CNC1(C)C2CCC(C2)C1(C)C (stereo not shown) [Mecamylamine]
Ki (α7 nAChR): > 10000 nM
displacing [^125I]iodo-MLA (in words) (α7 nAChR): weak or ineffective

CCN1CC2(COC(=O)c3cc(I)ccc3N3C(=O)CC(C)C3=O)CCC(OC)C34C5CC6C(OC)CC(O)(C5C6OC)C(O)(C(OC)C23)C14 (stereo not shown) [iodo-MLA, Iodo-methyllycaconitine]
Ki (α4β2 nAChRs): > 1000 nM
affinity at α4β2 nAChRs (in words) (α4β2 nAChRs): poor affinity

α-Bungarotoxin
crossing of the blood-brain barrier [1]: does not cross the blood-brain barrier
Ki for displacing [^125I]iodo-MLA (in words) (α7 nAChR): low nanomolar range
Ki (α7 nAChR; [2]): 2 ± 0.1 nM
